Assays:
Liver microsomes = experiment: Intrinsic clearance in rat liver microsomes preincubated for 5 mins before addition of NADPH measured after 30 mins by LC/MS/MS analysis; format: ADME, Microsome; conditions: 0.5 h
[1] = molecular target: 2-oxoglutarate receptor 1 (Homo sapiens, UniProt Q96P68); experiment: Antagonist activity at human GPR99 receptor expressed in CHO-K1 cells co-expressing Galpha and Gqi5 G-protein assessed as inhibition of succinate-induced increase in intracellular calcium level at by FLIPR assay; format: functional, cell-based
[2] = Cmax in Wistar rat at 5 mg/kg, iv by LC/MS/MS analysis; format: ADME, organism-based; set-up: dose 5 mg/kg, route intravenous; conditions: in vivo
[3] = Plasma clearance in Wistar rat at 5 mg/kg, iv; format: ADME, organism-based; set-up: dose 5 mg/kg, route intravenous
[4] = Volume of distribution at steady state in Wistar rat at 5 mg/kg, iv; format: ADME, organism-based; set-up: dose 5 mg/kg, route intravenous; conditions: in vivo, read-out: Vdss
[5] = Terminal half life in Wistar rat at 5 mg/kg, iv; format: ADME, organism-based; set-up: dose 5 mg/kg, route intravenous; conditions: in vivo, read-out: beta t1/2 (converted)
[6] = Cmax in Wistar rat at 30 mg/kg, po by LC/MS/MS analysis; format: ADME, organism-based; set-up: dose 30 mg/kg, route oral; conditions: in vivo
[7] = Tmax in Wistar rat at 30 mg/kg, po; format: ADME, organism-based; set-up: dose 30 mg/kg, route oral; conditions: in vivo
[8] = Plasma concentration in Wistar rat plasma at 30 mg/kg, po at 2 hrs; format: ADME, organism-based; set-up: dose 30 mg/kg, route oral
[9] = Plasma concentration in Wistar rat plasma at 30 mg/kg, po at 4 hrs; format: ADME, organism-based; set-up: dose 30 mg/kg, route oral
[10] = AUC (0 to 24 hrs) in Wistar rat plasma at 30 mg/kg, po; format: ADME, organism-based; set-up: time < 24 hr, dose 30 mg/kg, route oral
[11] = Terminal half life in Wistar rat plasma at 30 mg/kg, po; format: ADME, organism-based; set-up: dose 30 mg/kg, route oral; conditions: read-out: beta t1/2 (converted)
[12] = Oral bioavailability in Wistar rat plasma at 30 mg/kg; format: ADME, organism-based
Succinate receptor 1 [13] = molecular target: T1, Succinate receptor 1 (Homo sapiens, UniProt Q9BXA5); experiment: Antagonist activity at human GPR91 receptor expressed in CHO-K1 cells co-expressing Galpha and Gqi5 G-protein assessed as inhibition of succinate-induced increase in intracellular calcium level by FLIPR assay; format: functional, cell-based
T1 sequence (Q9BXA5 whole entry): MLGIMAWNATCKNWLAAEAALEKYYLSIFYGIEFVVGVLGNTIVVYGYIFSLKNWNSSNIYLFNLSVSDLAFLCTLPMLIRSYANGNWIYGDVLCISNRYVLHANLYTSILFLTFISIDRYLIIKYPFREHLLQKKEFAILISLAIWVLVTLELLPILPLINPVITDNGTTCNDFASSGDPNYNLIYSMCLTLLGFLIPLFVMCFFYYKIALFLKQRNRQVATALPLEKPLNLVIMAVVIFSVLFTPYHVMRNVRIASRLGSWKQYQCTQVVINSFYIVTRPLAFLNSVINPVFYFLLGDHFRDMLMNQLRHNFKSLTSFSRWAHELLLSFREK

[14] = Cmax in Wistar rat at 3 mg/kg, iv by LC/MS/MS analysis; format: ADME, organism-based; set-up: dose 3 mg/kg, route intravenous; conditions: in vivo
[15] = Plasma clearance in Wistar rat at 3 mg/kg, iv; format: ADME, organism-based; set-up: dose 3 mg/kg, route intravenous
[16] = Volume of distribution at steady state in Wistar rat at 3 mg/kg, iv; format: ADME, organism-based; set-up: dose 3 mg/kg, route intravenous; conditions: in vivo, read-out: Vdss
[17] = Terminal half life in Wistar rat at 3 mg/kg, iv; format: ADME, organism-based; set-up: dose 3 mg/kg, route intravenous; conditions: in vivo, read-out: beta t1/2 (converted)
[18] = Cmax in Wistar rat at 100 mg/kg, ip by LC/MS/MS analysis; format: ADME, organism-based; set-up: dose 100 mg/kg, route intraperitoneal; conditions: in vivo
[19] = Tmax in Wistar rat at 100 mg/kg, ip; format: ADME, organism-based; set-up: dose 100 mg/kg, route intraperitoneal; conditions: in vivo
[20] = AUC (0 to 24 hrs) in Wistar rat plasma at 100 mg/kg, ip; format: ADME, organism-based; set-up: time < 24 hr, dose 100 mg/kg, route intraperitoneal
[21] = Plasma concentration in Wistar rat plasma at 100 mg/kg, ip at 2 hrs; format: ADME, organism-based; set-up: dose 100 mg/kg, route intraperitoneal
[22] = Plasma concentration in Wistar rat plasma at 100 mg/kg, ip at 4 hrs; format: ADME, organism-based; set-up: dose 100 mg/kg, route intraperitoneal
[23] = Plasma concentration in Wistar rat plasma at 100 mg/kg, ip at 8 hrs; format: ADME, organism-based; set-up: dose 100 mg/kg, route intraperitoneal
Kidney = experiment: Drug concentration in Wistar rat kidney at 100 mg/kg, ip; format: ADME, organism-based; set-up: dose 100 mg/kg, route intraperitoneal; conditions: in vivo, read-out: Drug uptake
Rattus norvegicus [24] = experiment: Hypotensive activity in Wistar rat assessed as inhibition of succinate-induced increase in mean arterial pressure at 100 mg/kg, ip after 2 hrs post dose; format: functional; conditions: Artery, route intraperitoneal
Rattus norvegicus [25] = experiment: Hypotensive activity in Wistar rat assessed as inhibition of succinate-induced increase in mean arterial pressure at 100 mg/kg, ip after 4 hrs post dose; format: functional; conditions: Artery, route intraperitoneal
[26] = Plasma protein binding in Wistar rat at 100 mg/kg, ip; format: ADME, organism-based; set-up: dose 100 mg/kg, route intraperitoneal; conditions: read-out: PPB
Succinate receptor 1 [27] = molecular target: T2, Succinate receptor 1 (Rattus norvegicus, UniProt Q6IYF9); experiment: Antagonist activity at rat GPR91 receptor expressed in CHO-K1 cells co-expressing Galpha and Gqi5 G-protein assessed as inhibition of succinate-induced increase in intracellular calcium level by FLIPR assay; format: functional, cell-based
T2 sequence (Q6IYF9 whole entry): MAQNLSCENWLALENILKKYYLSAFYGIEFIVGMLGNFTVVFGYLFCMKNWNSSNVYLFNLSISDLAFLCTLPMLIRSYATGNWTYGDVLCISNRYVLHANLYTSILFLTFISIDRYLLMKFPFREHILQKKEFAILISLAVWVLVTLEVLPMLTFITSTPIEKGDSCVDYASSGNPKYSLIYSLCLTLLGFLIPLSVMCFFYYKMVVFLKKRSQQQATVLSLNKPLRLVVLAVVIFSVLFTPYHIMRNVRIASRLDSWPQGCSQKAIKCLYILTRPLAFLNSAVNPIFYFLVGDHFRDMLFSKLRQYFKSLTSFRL

[28] = Cmax in Wistar rat at 50 mg/kg, ip by LC/MS/MS analysis; format: ADME, organism-based; set-up: dose 50 mg/kg, route intraperitoneal; conditions: in vivo
[29] = Tmax in Wistar rat at 50 mg/kg, ip; format: ADME, organism-based; set-up: dose 50 mg/kg, route intraperitoneal; conditions: in vivo
[30] = AUC (0 to 8 hrs) in Wistar rat plasma at 50 mg/kg, ip; format: ADME, organism-based; set-up: time < 8 hr, dose 50 mg/kg, route intraperitoneal
[31] = Plasma concentration in Wistar rat plasma at 50 mg/kg, ip at 2 hrs; format: ADME, organism-based; set-up: dose 50 mg/kg, route intraperitoneal
[32] = Plasma concentration in Wistar rat plasma at 50 mg/kg, ip at 4 hrs; format: ADME, organism-based; set-up: dose 50 mg/kg, route intraperitoneal
[33] = Plasma concentration in Wistar rat plasma at 50 mg/kg, ip at 8 hrs; format: ADME, organism-based; set-up: dose 50 mg/kg, route intraperitoneal
[34] = Drug concentration in Wistar rat kidney at 50 mg/kg, ip after 4 hrs; format: ADME, organism-based; set-up: dose 50 mg/kg, route intraperitoneal; conditions: read-out: Drug uptake
Rattus norvegicus [35] = experiment: Hypotensive activity in Wistar rat assessed as inhibition of succinate-induced increase in mean arterial pressure at 50 mg/kg, ip after 2 hrs post dose; format: functional; conditions: Artery, route intraperitoneal
Rattus norvegicus [36] = experiment: Hypotensive activity in Wistar rat assessed as inhibition of succinate-induced increase in mean arterial pressure at 50 mg/kg, ip after 4 hrs post dose; format: functional; conditions: Artery, route intraperitoneal
[37] = Plasma protein binding in Wistar rat at 50 mg/kg, ip; format: ADME, organism-based; set-up: dose 50 mg/kg, route intraperitoneal; conditions: read-out: PPB
B1 bradykinin receptor = molecular target: T3, B1 bradykinin receptor (Homo sapiens, UniProt P46663); experiment: Antagonist activity at human bradykinin B1 receptor expressed in […] cells assessed as inhibition of calcium flux by FLIPR assay; format: functional, cell-based
T3 sequence (P46663 whole entry): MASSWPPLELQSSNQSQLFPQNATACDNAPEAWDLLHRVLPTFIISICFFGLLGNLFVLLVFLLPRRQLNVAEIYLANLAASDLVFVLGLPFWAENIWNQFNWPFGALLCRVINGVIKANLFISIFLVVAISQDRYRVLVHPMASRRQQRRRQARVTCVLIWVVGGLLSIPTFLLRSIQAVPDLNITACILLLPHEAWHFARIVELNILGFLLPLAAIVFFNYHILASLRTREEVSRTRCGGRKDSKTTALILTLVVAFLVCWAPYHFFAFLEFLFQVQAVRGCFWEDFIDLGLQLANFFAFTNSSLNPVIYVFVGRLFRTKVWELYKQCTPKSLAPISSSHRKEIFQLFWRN

2-oxoglutarate receptor 1, sequence (Q96P68 whole entry, looked up): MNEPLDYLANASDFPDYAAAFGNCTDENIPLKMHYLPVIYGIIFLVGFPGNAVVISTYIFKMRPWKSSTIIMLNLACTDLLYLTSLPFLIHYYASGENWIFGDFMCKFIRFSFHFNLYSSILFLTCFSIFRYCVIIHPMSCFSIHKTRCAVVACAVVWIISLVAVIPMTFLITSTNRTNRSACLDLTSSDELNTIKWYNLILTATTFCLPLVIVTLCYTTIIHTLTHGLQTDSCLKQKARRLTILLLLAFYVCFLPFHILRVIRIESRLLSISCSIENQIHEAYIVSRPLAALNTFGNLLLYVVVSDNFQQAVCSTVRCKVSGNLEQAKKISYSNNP

Intrinsic clearance (Liver microsomes) | IC50 [1] | Cmax [2] | clearance [3] | Vd [4] | half-life [5] | Cmax [6] | Tmax [7] | concentration at 2 h [8] | concentration at 4 h [9] | AUC(0-t) at 24 h [10] | half-life [11] | IC50 (Succinate receptor 1 [13]) | IC50 (Succinate receptor 1 [27]) | Cmax [28] | Tmax [29] | AUC(0-t) at 8 h [30] | concentration at 2 h [31] | concentration at 4 h [32] | concentration at 8 h [33] | Structure (SMILES) | also measured
0.17 nmol/min/mg | > 20 µM | 56 µM | 2 mL/min/kg | 0.2 L/kg | 1.3 h | 72 µM | 1.5 h | 70 µM | 40.5 µM | 472 µM·h | 3.4 h | 0.18 µM |  |  |  |  |  |  |  | FC(F)(F)Oc1ccc(-c2nnc(CCCCc3ccc4cccnc4n3)o2)cc1Cl | bioavailability [12]: 87%
0.2 nmol/min/mg | > 30 µM |  |  |  |  |  |  |  |  |  |  | 0.007 µM |  |  |  |  |  |  |  | C[C@H](NC(=O)Cc1ccc(-c2ccc3cccnc3n2)cc1)c1ccc(-c2ccc(F)c(C(F)(F)F)c2)cc1 | Cmax [14]: 9.8 µM; clearance [15]: 36 mL/min/kg; Vd [16]: 1 L/kg; half-life [17]: 0.9 h; Cmax [18]: 0.4 µM; Tmax [19]: 4.9 h; AUC(0-t) at 24 h [20]: 4.3 µM·h; concentration at 2 h [21]: 0.24 µM; concentration at 4 h [22]: 0.33 µM; concentration at 8 h [23]: 0.28 µM; concentration (Kidney): 8 µM; inhibition in vivo at 100 mg/kg (Rattus norvegicus [24]): 59%; inhibition in vivo at 100 mg/kg (Rattus norvegicus [25]): 76%; fraction unbound [26]: 0.01
0.3 nmol/min/mg | > 30 µM | 92 µM | 4.8 mL/min/kg | 0.1 L/kg | 0.3 h |  |  |  |  |  |  | 0.16 µM | 0.435 µM | 21 µM | 2.7 h | 304 µM·h | 19 µM | 20 µM | 15 µM | FC(F)(F)c1cc(-c2nnc(CCCCc3ccc4cccnc4n3)o2)ccc1Cl | 
1.2 nmol/min/mg | > 30 µM | 19 µM | 64.7 mL/min/kg | 0.5 L/kg | 0.1 h |  |  |  |  |  |  | 0.03 µM | 0.007 µM | 3.7 µM | 1.8 h | 17.4 µM·h | 1.8 µM | 2 µM | 1.1 µM | Cc1cccc(-c2ccc(CNC(=O)CCCc3ccc4cccnc4n3)cc2)c1 | concentration at 4 h [34]: 7 µM; inhibition in vivo at 50 mg/kg (Rattus norvegicus [35]): 71%; inhibition in vivo at 50 mg/kg (Rattus norvegicus [36]): 67%; fraction unbound [37]: 0.01
0.12 nmol/min/mg | > 30 µM | 40 µM | 4.7 mL/min/kg | 0.36 L/kg | 1.1 h | 37 µM | 0.5 h | 11.3 µM | 2.6 µM | 69 µM·h | 0.9 h | 0.035 µM | 0.135 µM | 22 µM | 2 h | 267 µM·h | 22 µM | 19 µM | 19 µM | O=C(CCCc1ccc2cccnc2n1)NCc1cc(-c2ccc(F)c(C(F)(F)F)c2)no1 | bioavailability [12]: 26%
0.7 nmol/min/mg |  |  |  |  |  |  |  |  |  |  |  | 0.8 µM |  |  |  |  |  |  |  | COC(=O)c1c(F)cccc1-c1ccc(CNC(=O)CCCc2ccc3cccnc3n2)c(F)c1 | IC50 (B1 bradykinin receptor): 2.5 µM

— ChEMBL document CHEMBL2150920, “Discovery of a potent and selective small molecule hGPR91 antagonist” (Bioorg Med Chem Lett, 2011)
